ChEMBL document CHEMBL3763135, “Synthesis and evaluation of thiophene-based guanylhydrazones (iminoguanidines) efficient against panel of voriconazole-resistant fungal isolates” (Bioorg Med Chem, 2016)
Values after ≈ are worked out from the molar mass of the structure shown. Active and inactive are the calls of the source. The calls are words filed in the database; no cut-off is given here.

Assays:
[1] = species on record: Danio rerio; experiment: Toxicity against zebrafish embryo assessed as normal embryos at 25 ug/ml measured at 96 hrs post fertilization by inverted microscopic analysis; type: organism-based; settings: in vivo
[2] = species on record: Danio rerio; experiment: Toxicity against zebrafish embryo assessed as growth retardation at 2.5 ug/ml measured at 96 hrs post fertilization by inverted microscopic analysis; type: organism-based; settings: in vivo
[3] = species on record: Danio rerio; experiment: Toxicity against zebrafish embryo assessed as effect on otoliths at 2.5 ug/ml measured at 96 hrs post fertilization by inverted microscopic analysis; type: organism-based; settings: in vivo
[4] = system: Danio rerio; experiment: Toxicity against zebrafish embryo assessed as yolk edema at 2.5 ug/ml measured at 96 hrs post fertilization by inverted microscopic analysis; type: organism-based; settings: in vivo
[5] = system: Trichophyton mentagrophytes; experiment: Antifungal activity against Trichophyton mentagrophytes DMT4 by broth dilution method; type: functional
[6] = species on record: Danio rerio; experiment: Toxicity against zebrafish embryo assessed as teratogenic embryos at 2.5 ug/ml measured at 96 hrs post fertilization by inverted microscopic analysis; type: organism-based; settings: in vivo
[7] = species on record: Danio rerio; experiment: Toxicity against zebrafish embryo assessed as normal embryos at 50 ug/ml measured at 96 hrs post fertilization by inverted microscopic analysis; type: organism-based; settings: in vivo
[8] = system: Candida albicans; experiment: Antibiofilm activity against Candida albicans assessed as inhibition of Spider medium-induced hyphae formation at sub-MIC after 24 hrs by propidium iodide and FITC-conjugated concanavaline A staining based fluorescence microscopy; type: functional, organism-based
[9] = species on record: Danio rerio; experiment: Toxicity against zebrafish embryo assessed as teratogenic embryos at 50 ug/ml measured at 96 hrs post fertilization by inverted microscopic analysis; type: organism-based; settings: in vivo
[10] = species on record: Danio rerio; experiment: Toxicity against zebrafish embryo assessed as effect on otoliths at 5 ug/ml measured at 96 hrs post fertilization by inverted microscopic analysis; type: organism-based; settings: in vivo
[11] = Toxicity against zebrafish embryo assessed as dead embryos at 10 ug/ml measured at 96 hrs post fertilization by inverted microscopic analysis; type: organism-based, Danio rerio; settings: read-out: Activity
[12] = species on record: Danio rerio; experiment: Toxicity against zebrafish embryo assessed as growth retardation at 5 ug/ml measured at 96 hrs post fertilization by inverted microscopic analysis; type: organism-based; settings: in vivo
[13] = species on record: Danio rerio; experiment: Toxicity against zebrafish embryo assessed as effect on notochord at 2.5 ug/ml measured at 96 hrs post fertilization by inverted microscopic analysis; type: organism-based; settings: in vivo
[14] = species on record: Danio rerio; experiment: Toxicity against zebrafish embryo assessed as unhatched embryos at 5 ug/ml measured at 96 hrs post fertilization by inverted microscopic analysis; type: organism-based; settings: in vivo
[15] = species on record: Danio rerio; experiment: Toxicity against zebrafish embryo assessed as head malformation at 2.5 ug/ml measured at 96 hrs post fertilization by inverted microscopic analysis; type: organism-based; settings: in vivo
[16] = species on record: Danio rerio; experiment: Toxicity against zebrafish embryo assessed as head malformation at 5 ug/ml measured at 96 hrs post fertilization by inverted microscopic analysis; type: organism-based; settings: in vivo
[17] = system: Candida albicans; experiment: Antifungal activity against Candida albicans CA5 assessed as fungal growth at sub-MIC measured after 24 hrs by time-kill dependence-based spectrophotometric analysis relative to DMSO control; type: functional, organism-based
[18] = species on record: Danio rerio; experiment: Toxicity against zebrafish embryo assessed as effect on tail tip at 5 ug/ml measured at 96 hrs post fertilization by inverted microscopic analysis; type: organism-based; settings: in vivo
[19] = Toxicity against zebrafish embryo assessed as dead embryos at 2.5 ug/ml measured at 96 hrs post fertilization by inverted microscopic analysis; type: organism-based, Danio rerio; settings: read-out: Activity
[20] = Toxicity against zebrafish embryo assessed as dead embryos at 5 ug/ml measured at 96 hrs post fertilization by inverted microscopic analysis; type: organism-based, Danio rerio; settings: read-out: Activity
[21] = Toxicity against zebrafish embryo assessed as dead embryos at 25 ug/ml measured at 96 hrs post fertilization by inverted microscopic analysis; type: organism-based, Danio rerio; settings: read-out: Activity
[22] = species on record: Danio rerio; experiment: Toxicity against zebrafish embryo assessed as normal embryos at 10 ug/ml measured at 96 hrs post fertilization by inverted microscopic analysis; type: organism-based; settings: in vivo
[23] = Toxicity against zebrafish embryo measured at 96 hrs post fertilization by inverted microscopic analysis; type: organism-based, Danio rerio; settings: zebrafish embryos
[24] = system: Danio rerio; experiment: Toxicity against zebrafish embryo assessed as pericardial edema at 5 ug/ml measured at 96 hrs post fertilization by inverted microscopic analysis; type: organism-based; settings: in vivo
[25] = system: Aspergillus fumigatus; experiment: Antifungal activity against Aspergillus fumigatus ATCC 13073 by broth dilution method; type: functional
[26] = species on record: Danio rerio; experiment: Toxicity against zebrafish embryo assessed as normal embryos at 2.5 ug/ml measured at 96 hrs post fertilization by inverted microscopic analysis; type: organism-based; settings: in vivo
[27] = species on record: Danio rerio; experiment: Toxicity against zebrafish embryo assessed as effect on blood circulation at 2.5 ug/ml measured at 96 hrs post fertilization by inverted microscopic analysis; type: organism-based; settings: in vivo
[28] = system: Danio rerio; experiment: Toxicity against zebrafish embryo assessed as pericardial edema at 2.5 ug/ml measured at 96 hrs post fertilization by inverted microscopic analysis; type: organism-based; settings: in vivo
[29] = species on record: Danio rerio; experiment: Toxicity against zebrafish embryo assessed as effect on notochord at 5 ug/ml measured at 96 hrs post fertilization by inverted microscopic analysis; type: organism-based; settings: in vivo
[30] = system: Danio rerio; experiment: Toxicity against zebrafish embryo assessed as yolk edema at 5 ug/ml measured at 96 hrs post fertilization by inverted microscopic analysis; type: organism-based; settings: in vivo
[31] = system: Microsporum canis; experiment: Antifungal activity against Microsporum canis DMT2 by broth dilution method; type: functional
[32] = species on record: Danio rerio; experiment: Toxicity against zebrafish embryo assessed as teratogenic embryos at 10 ug/ml measured at 96 hrs post fertilization by inverted microscopic analysis; type: organism-based; settings: in vivo
[33] = system: Fusarium oxysporum; experiment: Antifungal activity against Fusarium oxysporum AB18 by broth dilution method; type: functional
[34] = system: Pichia kudriavzevii; experiment: Antifungal activity against Candida krusei ATCC 34135 by broth dilution method; type: functional
[35] = species on record: Danio rerio; experiment: Toxicity against zebrafish embryo assessed as skeletal deformities at 5 ug/ml measured at 96 hrs post fertilization by inverted microscopic analysis; type: organism-based; settings: in vivo
[36] = species on record: Danio rerio; experiment: Toxicity against zebrafish embryo assessed as normal embryos at 5 ug/ml measured at 96 hrs post fertilization by inverted microscopic analysis; type: organism-based; settings: in vivo
[37] = species on record: Danio rerio; experiment: Toxicity against zebrafish embryo assessed as effect on heart beat at 5 ug/ml measured at 96 hrs post fertilization by inverted microscopic analysis; type: organism-based; settings: in vivo
[38] = species on record: Danio rerio; experiment: Toxicity against zebrafish embryo assessed as teratogenic embryos at 25 ug/ml measured at 96 hrs post fertilization by inverted microscopic analysis; type: organism-based; settings: in vivo
[39] = species on record: Danio rerio; experiment: Toxicity against zebrafish embryo assessed as effect on blood circulation at 5 ug/ml measured at 96 hrs post fertilization by inverted microscopic analysis; type: organism-based; settings: in vivo
[40] = system: Candida albicans; experiment: Antibiofilm activity against Candida albicans ATCC 10231 assessed as disruption of preformed biofilm after 24 hrs by concanavalin A-FITC-staining based fluorescence microscopic analysis; type: functional
[41] = system: Candida parapsilosis; experiment: Antifungal activity against Candida parapsilosis C27 by broth dilution method; type: functional
[42] = species on record: Danio rerio; experiment: Toxicity against zebrafish embryo assessed as unhatched embryos at 2.5 ug/ml measured at 96 hrs post fertilization by inverted microscopic analysis; type: organism-based; settings: in vivo
[43] = system: Candida albicans; experiment: Antifungal activity against Candida albicans ATCC 10231 by broth dilution method; type: functional
[44] = species on record: Danio rerio; experiment: Toxicity against zebrafish embryo assessed as effect on tail tip at 2.5 ug/ml measured at 96 hrs post fertilization by inverted microscopic analysis; type: organism-based; settings: in vivo
[45] = species on record: Danio rerio; experiment: Toxicity against zebrafish embryo assessed as effect on eyes at 5 ug/ml measured at 96 hrs post fertilization by inverted microscopic analysis; type: organism-based; settings: in vivo
[46] = species on record: Danio rerio; experiment: Toxicity against zebrafish embryo assessed as effect on heart beat at 2.5 ug/ml measured at 96 hrs post fertilization by inverted microscopic analysis; type: organism-based; settings: in vivo
[47] = Induction of membrane damage in PC/PS liposome assessed as calcein release at MIC after 30 mins by fluorescence-based liposome leakage assay; type: functional
[48] = system: Candida parapsilosis; experiment: Antibiofilm activity against Candida parapsilosis C27 assessed as disruption of preformed biofilm after 24 hrs by concanavalin A-FITC-staining based fluorescence microscopic analysis; type: functional
[49] = system: Candida albicans; experiment: Antifungal activity against Candida albicans CA5 by broth dilution method; type: functional
[50] = species on record: Danio rerio; experiment: Toxicity against zebrafish embryo assessed as teratogenic embryos at 5 ug/ml measured at 96 hrs post fertilization by inverted microscopic analysis; type: organism-based; settings: in vivo
[51] = system: Candida albicans; experiment: Antifungal activity against Candida albicans CA5 assessed as fungal growth at sub-MIC measured over 12 hrs by time-kill dependence-based spectrophotometric analysis relative to DMSO control; type: functional
[52] = Toxicity against zebrafish embryo assessed as dead embryos at 50 ug/ml measured at 96 hrs post fertilization by inverted microscopic analysis; type: organism-based, Danio rerio; settings: read-out: Activity
[53] = system: Pichia kudriavzevii; experiment: Antibiofilm activity against Pichia kudriavzevii ATCC 34135 assessed as disruption of preformed biofilm after 24 hrs by concanavalin A-FITC-staining based fluorescence microscopic analysis; type: functional
[54] = species on record: Danio rerio; experiment: Toxicity against zebrafish embryo assessed as effect on eyes at 2.5 ug/ml measured at 96 hrs post fertilization by inverted microscopic analysis; type: organism-based; settings: in vivo
[55] = species on record: Danio rerio; experiment: Toxicity against zebrafish embryo assessed as skeletal deformities at 2.5 ug/ml measured at 96 hrs post fertilization by inverted microscopic analysis; type: organism-based; settings: in vivo
[56] = Selectivity index, ratio of IC50 for human MRC5 cell to MIC for Candida albicans CA5
[57] = Induction of membrane damage in PC/PS/E liposome assessed as calcein release at MIC after 30 mins by fluorescence-based liposome leakage assay; type: functional
[58] = system: Candida albicans; experiment: Induction of DNA intercalation with Candida albicans genomic DNA at 25 ug/ml after 12 hrs by ethidium bromide staining based gel electrophoresis method
[59] = Hemolytic effect in sheep RBC assessed as release of hemoglobin at cytotoxic IC50 after 1 hr; type: cell-based, Ovis aries, Erythrocyte; settings: sheep red blood cells, read-out: Activity
[60] = system: MRC5; experiment: Cytotoxicity against human MRC5 cells after 48 hrs by MTT assay; type: cell-based; settings: MRC5, 48 h
[61] = Hemolytic effect in sheep RBC assessed as release of hemoglobin at MIC after 1 hr; type: ADME, cell-based, Ovis aries, Erythrocyte; settings: sheep red blood cells, read-out: Activity

SMILES: C[C@@H](c1ncncc1F)[C@](O)(Cn1cncn1)c1ccc(F)cc1F [VORICONAZOLE]
- Activity [1]: 0%
- Activity [2]: 100%
- Activity [3]: 100%
- Activity [4]: 0%
- MIC [5]: 0.25 µg/mL (≈ 0.716 µM)
- Activity [6]: 63.33%
- Activity [7]: 0%
- Activity [8]: Active
- Activity [9]: 0%
- Activity [10]: 100%
- mortality at 96 h, 10 ug/ml [11]: 100%
- Activity [12]: 100%
- Activity [13]: 0%
- Activity [14]: 0%
- Activity [15]: 100%
- Activity [16]: 100%
- Activity [17]: inactive
- Activity [18]: 0%
- mortality at 96 h, 2.5 ug/ml [19]: 36.7%
- mortality at 96 h, 5 ug/ml [20]: 80%
- mortality at 96 h, 25 ug/ml [21]: 100%
- Activity [22]: 0%
- LC50 at 96 h [23]: 3.1 µg/mL (≈ 8.87 µM)
- Activity [24]: 100%
- MIC [25]: 0.06 µg/mL (≈ 0.172 µM)
- Activity [26]: 0%
- Activity [27]: 0%
- Activity [28]: 100%
- Activity [29]: 0%
- Activity [30]: 100%
- MIC [31]: 0.5 µg/mL (≈ 1.43 µM)
- Activity [32]: 0%
- MIC [33]: inactive
- MIC [34]: 0.06 µg/mL (≈ 0.172 µM)
- Activity [35]: 100%
- Activity [36]: 0%
- Activity [37]: 100%
- Activity [38]: 0%
- Activity [39]: 100%
- MBEC [40]: 250 µg/mL
- MIC [41]: inactive
- Activity [42]: 0%
- MIC [43]: 0.5 µg/mL (≈ 1.43 µM)
- Activity [44]: 0%
- Activity [45]: 100%
- Activity [46]: 0%
- Activity [47]: 12%
- MBEC [48]: inactive
- MIC [49]: inactive
- Activity [50]: 20%
- Activity [51]: Active
- mortality at 96 h, 50 ug/ml [52]: 100%
- MBEC [53]: 250 µg/mL
- Activity [54]: 100%
- Activity [55]: 94.74%

SMILES: Cl.Cl.N=C(N)N/N=C/c1ccc(-c2ccc(-c3ccc(/C=N/NC(=N)N)cc3)s2)cc1
- MIC [5]: 0.25 µg/mL
- Activity [8]: inactive
- Selectivity Index [56]: 20
- Activity [57]: 7%
- MIC [25]: 25 µg/mL
- Activity [58]: Active
- hemolysis at 1 h [59]: ≤ 10%
- MIC [31]: 0.25 µg/mL
- IC50 [60]: 5 µg/mL
- MIC [33]: > 250 µg/mL
- MIC [34]: 50 µg/mL
- hemolysis at 1 h [61]: ≤ 10%
- MBEC [40]: 250 µg/mL
- MIC ([41]; Lodderomyces parapsilosis): 50 µg/mL
- MIC [43]: 3.9 µg/mL
- MBEC [48]: 1000 µg/mL
- MIC [49]: 0.25 µg/mL
- MBEC [53]: 1000 µg/mL
